Consider two molecules from patent US20150064289A1, “Raw Extract of a Sechium Edule Hybrid, Method for Extracting Same and Use Thereof for Formulations Having an Antineoplastic Effect” (priority 2012, published 2015).

Assay [1] concerns normal bone marrow cells. The assay can be described thus: Proliferation of normal bone marrow cells, crystal violet technique. The assay is classed as cell-based. As to conditions: normal mouse bone marrow cells; 5 µg/mL of citarabine; 5 days. The procedure:
To determine the effect of the extract of Sechium edule hybrid named MH-387-07-GISeM” on tumor cells, HeLa cell lines, which are derived from adenocarcinoma of […] cervical epithelial tissue; cell line L929 derived from male mouse's fibrosarcoma of areolar and adipose subcutaneous connective […] tissue, WEHI-3 y K562 are lines derived from leukemia (liquid tumors) which are maintained in IMDM culture medium (Iscove's Modified Dulbecco's Medium). Tumor cells were cultured for 72 hours in 200 μL of culture medium and serum containing 0.0, 0.15, 0.3, 0.6, 1.2, 2.5 and 5 μg/mL of extract, and were evaluated by the crystal violet technique (FIG. 1). Cells were maintained in culture for 5 days after being stimulated with diverse doses of extract or Ara-C as a control (5 μM), and were evaluated by the crystal violet technique, FIG. 1, where a dose-response curve of the effect of H-387-07-GISeM extract on cell proliferation of lines EHI-3, HeLa, L929, and bone marrow cells was plotted. Values are the average of three tests with tree replicates. Lines above the bars indicate±standard deviation. * Significant difference (p<0.05) compared to control. […] On the other hand, normal bone marrow cells of mouse treated with […] achieve a proliferation of 60% compared to the control, but with 5 µg/mL of citarabine (Ara-c) it only reaches a 35%.

The subject of assay [2] is WEHI-3. Nature of the assay: Apoptotic bodies by morphology (Giemsa), WEHI-3. The format is cell-based, mouse. As to conditions: 48 hrs, Ara-C 5 μg/mL, mean ± standard deviation. The procedure:
(§1) Once elapsed that time, cells were collected and placed on a slide; then were fixed with 1 mL of methanol and stained for 20 minutes with 10% Giemsa stain. Cells were observed under a microscope (Cari Zeiss, Primo Star, Germany) equipped with 100× objective lens. Morphological changes like decreased cell volume, chromatin condensation, loss of cell membrane regularity, were cytomorphological parameters evaluated in the formation of apoptotic bodies. 200 cells of each experiment were counted to obtain the percentage of normal and apoptotic cells.

Assay [3] deals with L929. Nature of the assay: Apoptotic bodies by morphology (Giemsa), L929. The assay is classed as cell-based, mouse. As to conditions: 48 hrs, Ara-C 5 μg/mL, mean ± standard deviation. The procedure: as §1
Assay [4] concerns HeLa. Nature of the assay: Apoptotic bodies by morphology (Giemsa), HeLa. As to conditions: 48 hrs, Ara-C 5 μg/mL, mean ± standard deviation. The assay is classed as cell-based, human. The procedure:
as §1

Assay [5] has as its system K-562. Nature of the assay: Cell viability by trypan blue exclusion, K-562. As to conditions: K562. The format is cell-based. The method, then:
On the other hand, the cell viability was evaluated in order to determine that the extract only acts against tumor cells, for which purpose tumor cells were cultured for 72 hours under the above conditions in quantities of 200 μL of medium per well in 96-well, flat bottom, ultra-low adherence plates (Costar, Cambridge, Mass., USA) with various doses of extract.

Assay [6] deals with WEHI-3. Nature of the assay: Apoptosis induction through DNA fragmentation (agarose gel). As to conditions: WEHI-3 grown 48 hours, extract at IC50, FIG. 3.
Protocol: Apoptosis induction was evaluated through DNA fragmentation.

For `Nc1ccn([C@@H]2O[C@H](CO)[C@@H](O)[C@@H]2O)c(=O)n1` [Ara-C, citarabine], the “proliferation compared to the control” value in assay [1] was determined as 35%. For the same molecule, the entries for the “% Apoptotic bodies” value in assay [2], in assay [3] and in assay [4] were 61.5 ± 8.2%, 6 ± 1.4% and 21 ± 0%, respectively. For the same molecule, the effect on viability result in assay [5] (Ara-c as worded in text) was “totally does so”. The DNA fragmentation entry in assay [6] is reported as “experiences DNA fragmentation”.
As usually defined, the viability is a read-out of living cells in per cent, often relative to untreated cells. Higher therefore signals less harm to the cells. In turn, `Cc1ccc(NC(=O)c2ccc(CN3CCN(C)CC3)cc2)cc1Nc1nccc(-c2cccnc2)n1` [imatinib] displayed a viability at 1 µM in assay [5] (Homo sapiens, K-562, imatinib 1 μM (footnote), mean ± standard deviation) of 4%.
